According to patent US20230103552A1, “SYSTEMS AND PHARMACEUTICAL COMPOSITIONS FOR TREATMENT BY DIRECT INJECTION OF A TARGETED POPULATION OF CELLS” (Privo Technologies, Inc., priority 2020, published 2023):

Tests used:
[1] = system: mice grafted with cancer cells; test: In-vivo mice study, tumor volume vs time
Excerpt: FIG. 6 provides a graph of change in Mice tumor volume vs time involving different treatments. The black curve corresponds to a control untreated tumor, the gray curve corresponds to intratumoreal injection with placebo particles containing no drug, the green curve corresponds to intravenous injection with drug, the red curve corresponds to intratumoreal injection of free drug, and the blue curve corresponds to injection with drug-encapsulated hydrogel PRV311.
Here, the PRV311 composition included microparticles loaded with the anti-tumor cytokine IL-12. […] It is hypothesized that the injected PRV311's polymeric mesh causes microparticles containing PRV311 to be retained locally, increasing efficacy.

[2] = system: established colorectal (MC32a) and pancreatic (Panc02) tumors; conditions: weekly i.t. injections; cited from earlier work
[3] = mouse, in vivo; cited from earlier work

In the case of IL-12: potent antitumor cytokine, the tumor growth ([1]; intratumoral injection) is given as “merely delayed tumor growth”, the tumor growth ([1]; intravenous injection) is given as “no significant change in tumor growth rate” and the established tumors eradicated [2] is given as no more than 10%. The “local IL-12 retention” value [3] was 1 to 2 days.
